Where two headings read alike, the source gives them in different places.
Key:
Format in all cases: cell-based, human
[1] = test system: HEK293 S1PR1 expressing cells; assay: EGF-mediated ERK1/2 phosphorylation in HEK293 S1PR1 expressing cells (inhibitor specificity control); settings: CCG215022 50 µM, 20 nM EGF for 5 min
Procedure: HEK293 cells were plated in 96 multi-well plates and grown until 90% confluent. After the S1P-starvation, the cell monolayers were treated as described in the text and then processed using the ERK1/2 (pT202/Y204 + Total) ELISA Kit from Abcam (cat n. ab176660), following the manufacturer guidelines and adding the HALT™ Proteases & Phosphatases inhibitor cocktail (Thermo Fisher Scientific) to the lysis buffer provided with the kit. To quantify pERK1/2 and total ERK, 40 µg and 5 µg of total protein extract were used from each well, respectively. The chromogenic signals were read at the Sunrise Tecan multi-plate reader and expressed as pERK/ERKTotal signal ratio. […] AKT phosphorylation was quantified by ELISA as above in cell lysates after 5 min stimulation, with the AKT (pS473 + Total) ELISA Kit from Abcam (cat. n. ab176657).
Supplementary Figure 2 | Effects of S1PR1 overexpression in HEK293 cells. […]
20 nM EGF for 5 min. pERK1/2 or pAKT were measured in the cell extracts by ELISA and expressed as relative units; n=12 independent experiments. […]
(§1) ELISA and expressed as relative units; n=3 independent experiments. […]
without 30 min pre-treatment with 100 µM ML056. Cell extracts were then analysed in immunoblotting for S1PR1, ERK1/2 and pERK1/2.

[2] = test system: HEK293 S1PR1 expressing cells; assay: AKT phosphorylation ELISA in HEK293 S1PR1 expressing cells; settings: 0.1 µM S1P or FTY720-P for 5 min, PTX 300 ng/mL, CCG215022 50 µM
Procedure: HEK293 cells were plated in 96 multi-well plates and grown until 90% confluent. […] To quantify pERK1/2 and total ERK, 40 µg and 5 µg of total protein extract were used from each well, respectively. The chromogenic signals were read at the Sunrise Tecan multi-plate reader and expressed as pERK/ERKTotal signal ratio. […] AKT phosphorylation was quantified by ELISA as above in cell lysates after 5 min stimulation, with the AKT (pS473 + Total) ELISA Kit from Abcam (cat. n. ab176657). […]
pertussis toxin (PTX) for 18 hours and with 0.1% DMSO alone or with 50 µM CCG215022 […]
20 nM EGF for 5 min. pERK1/2 or pAKT were measured in the cell extracts by ELISA and expressed as relative units; n=12 independent experiments. (b) HEK293 cells expressing […]
as §1

[3] = test system: HEK293 cells expressing mS1PR1-eGFP; assay: Confocal microscopy count of cytosolic eGFP+ clusters (receptor internalisation), mS1PR1-eGFP; settings: 0.1 µM, 20 min
Procedure: (§2) Cells expressing S1PR1-eGFP or mS1PR1-eGFP were plated onto poly-L-lysine-coated 8 well µ-slides (Ibidi) at 3 × 10^4 cell/well. […] Images were deconvoluted using Huygens Professional Software (Scientific Volume Imaging). Mid-plane z-sections were used for counting cytosolic GFP^+ vesicles in cells stimulated for 20 min. Confocal imaging was performed at the Advanced Light and Electron Microscopy Bioimaging Centre of IRCCS San Raffaele Scientific Institute. We used a custom Matlab script (Supplementary Data 1) performing the following image analysis: (i) the membranes were segmented from the image, identifying regions of both absolute and local high intensity (Supplementary Fig. 9A–G) in order to include all the membranes independently of their intensity; (ii) morphological erosion was used to clear small objects and to smooth the edges of the identified membranes (Supplementary Fig. 9H, I); (iii) the region of interest was defined as the region completely enclosed by a membrane (Supplementary Fig. 9J, K); (iv) GFP^+ cytosolic vesicles were identified as local intensity maxima (Supplementary Fig. 9L–O) within the region of interest and counted. Experiments were replicated independently three times. The number of vesicles from 40 to 150 cells were counted as detailed in Fig. 4 legend and the statistical analysis performed with the GraphPad Prism software.

[4] = test system: HEK293 cells expressing S1PR1; assay: ERK1/2 phosphorylation ELISA/immunoblot in HEK293 cells expressing S1PR1
Procedure: (§3) Human embryonic kidney-293 (HEK293, ATCC CRL-1573) cells were routinely maintained in complete DMEM/F12 1:1 mixture (Sigma Aldrich) containing 10% FBS and 0.5 mM N-acetyl cysteine. Mycoplasma detection was performed routinely by checking for cytoplasmic DNA and every six months with Universal Mycoplasma Detection Kit (ATCC 30–1012 K). The stop-less coding sequences of either wild-type S1PR1 or mS1PR1 (without the additional modifications present in the constructs for the protein production) were obtained from GeneArt (Thermo Fisher Scientific) and inserted into the HindIII/BamHI-digested pEGFP-N1 vector (Takara) to express S1PR1- and mS1PR1-eGFP. The pEFGP-N1-S1PR1 or pEFGP-N1-mS1PR1 plasmids were further modified by re-introducing the TAG stop codon at the 3′ end of the S1PR1 open reading frame to express untagged S1PR1 or mS1PR1, respectively, using the primer pair 5’-[…]-3’ and 5′-[…]-3′. Cell monolayers were transfected with JetPEI™ (Polyplus) and the appropriate plasmid vectors. Transfected cell cultures were passed once a week for three times and then the GFP^+ cells were sorted in a MoFlo XDP (Beckman Coulter). Sorted cell cultures were expanded and sorted again and the expression of the desired chimeric protein verified by immunoblot. Sorting was performed at the Flow Cytometry Resourc, Advanced Cytometry Technical Applications Laboratory of IRCCS San Raffaele Scientific Institute.
(§4) Two hundred nanomole of S1PR1/L of culture medium were used at […] receptor concentration. Under sterile conditions, purified receptor was first dialysed three times against the serum-free medium. Medium-equilibrated S1PR1 was then incubated 24 h at +4 °C in complete culture medium. The depletion procedure was performed twice for each lot of culture medium. […] The depleted medium was also used to prepare 1000× stock solutions of each of the two S1PR1 agonists or the GRK inhibitor CCG215022, and the 10× ML056 stock solution used in the cell-based experiments.
(§5) HEK293 cells were plated in 96 multi-well plates and grown until 90% confluent. […] To quantify pERK1/2 and total ERK, 40 µg and 5 µg of total protein extract were used from each well, respectively. The chromogenic signals were read at the Sunrise Tecan multi-plate reader and expressed as pERK/ERKTotal signal ratio. […] AKT phosphorylation was quantified by ELISA as above in cell lysates after 5 min stimulation, with the AKT (pS473 + Total) ELISA Kit from Abcam (cat. n. ab176657).

[5] = test system: HEK293 cells expressing mS1PR1; assay: ERK1/2 phosphorylation ELISA/immunoblot in HEK293 cells expressing mS1PR1; settings: for change of potency in stimulating ERK phosphorylation, mS1PR1 vs S1PR1 clones / maximal pERK response in mS1PR1 vs S1PR1 clones: 5 min stimulation, 1 pM–1 mM ligand
Procedure: 95% CI are reported in Supplementary Fig. 4.
as §3, §4, §5

[6] = test system: HEK293 cells expressing S1PR1-eGFP; assay: Confocal microscopy count of cytosolic eGFP+ clusters (receptor internalisation), S1PR1-eGFP; settings: 0.1 µM, 20 min
Procedure: as §2

[7] = test system: HEK293 cells expressing S1PR1-eGFP; assay: Anti-GFP immunoprecipitation of S1PR1-eGFP, immunoblot for β-arrestin 1/2 and ERK1/2; settings: 0.1 µM, co-immunoprecipitation; for S1PR1 binding to β-arrestins in the late signalling phase: 30 min
Procedure: (§6) Cells were washed twice in ice-cold phosphate-buffered saline and lysed in 20 mM HEPES, 150 mM NaCl, 1% Triton X-100, 0.15% Nonidet P-40, 1× HALT™ Proteases and Phosphatases inhibitor cocktail, 1.25 U/mL Benzonase. Clarified lysates were incubated for 1 h at +4 °C with GFP-Trap® resin (Chromotek) and extensively washed with lysis buffer. Finally, the immunopurified material was eluted in 4% SDS and analysed by immunoblot. The equal loading was based on the GFP amount reading the samples in the Cary Eclipse Varian spectrofluorometer with 488 nm λEx and 509 nm λEm. In some experiments, cells expressing S1PR1 without the GFP tag were used as control and the equal loading was based on total protein concentration measured with the BCA method (G Biosciences).

[8] = test system: HEK293 cells expressing mS1PR1-eGFP; assay: Anti-GFP immunoprecipitation of mS1PR1-eGFP, immunoblot for β-arrestin 1/2 and ERK1/2; settings: 0.1 µM, co-immunoprecipitation
Procedure: as §6

[9] = test system: HEK293 cells expressing mS1PR1-eGFP; assay: Fluorescence-based analysis of S1PR1 down-modulation, mS1PR1-eGFP; settings: 4 h-long treatment
Procedure: (§7) Cells were washed twice in ice-cold phosphate-buffered saline and lysed in 20 mM HEPES, 150 mM NaCl, 1% Triton X-100, 0.15% Nonidet P-40, 1× HALT™ Proteases & Phosphatases inhibitor cocktail, 1.25 U/mL Benzonase. Lysates were clarified were used and 50 µg of total protein from each sample were read in the Cary Eclipse Varian spectrofluorometer with 488 nm λEx and 509 nm λEm to measure the eGFP amount.

[10] = test system: HEK293 cells expressing S1PR1-eGFP; assay: Fluorescence-based analysis of S1PR1 down-modulation, S1PR1-eGFP; settings: 4 h-long treatment
Procedure: as §7

Compound	effect on AKT phosphorylation [2]	number of clusters/cell, 95% CI [3]	change of potency in stimulating ERK phosphorylation, mS1PR1 vs S1PR1 clones [5]	maximal pERK response in mS1PR1 vs S1PR1 clones [5]	number of clusters/cell, 95% CI [6]	S1PR1 binding to β-arrestins in the late signalling phase [7]	ERK1/2 recruited onto activated S1PR1 [7]	stable interaction of mS1PR1 with β-arrestin [8]	other results
CC1=C(C(=O)Nc2ccc3[nH]ncc3c2)C(c2ccc(F)c(C(=O)NCc3ccccn3)c2)NC(=O)N1 (centres unmarked) [CCG215022]	not modified	–	–	–	–	–	–	–	effect on EGF-mediated ERK1/2 phosphorylation [1]: does not inhibit
CCCCCCCCc1ccc(CC[C@](N)(CO)COP(=O)(O)O)cc1 [FTY720-P, FTY720 (S)-phosphate]	induced	8.7–11 clusters/cell	ten-fold decrease of their potency	not affected	9.9–14.1 clusters/cell	stable binding to β-arrestins	did not show an increase of the interaction with ERK1/2 above baseline levels	neither S1P nor FTY720-P were capable to induce a stable interaction	time at which pERK1/2 response decreased to the baseline level ([4]; 0.1 µM agonist): 20 min; time of early pERK1/2 peak ([4]; 0.1 µM agonist, S1P-starved cells): 5 min; pERK1/2 kinetics in mS1PR1 cells ([5]; 0.1 µM agonist): stable level of ERK1/2 phosphorylation; mS1PR1 level in cell lysates (receptor degradation) [9]: remained stable; S1PR1 level in cell lysates (receptor degradation) [10]: barely detectable
CCCCCCc1cccc(NC(=O)[C@H](N)CCP(=O)(O)O)c1 [ML056]	–	–	–	–	–	–	–	–	effect on agonist-induced signalling response (pERK1/2) ([4]; 30 min pre-treatment with 100 µM ML056, then 0.1 µM S1P, immunoblot): abrogated
CCCCCCCCCCCCC/C=C/[C@@H](O)[C@@H](N)COP(=O)(O)O [S1P, Sphingosine 1-phosphate]	induced	5.7–7.7 clusters/cell	ten-fold decrease of their potency	not affected	6.7–10.2 clusters/cell	only a limited interaction	recruited more ERK1/2	neither S1P nor FTY720-P were capable to induce a stable interaction	pERK1/2 still detectable after 60 min, % of its maximal value [4]: 50%; time of early pERK1/2 peak [4]: 5 min
pertussis toxin	abolishes	–	–	–	–	–	–	–	effect on S1P- and FTY720-P-induced ERK1/2 phosphorylation ([4]; 300 ng/mL pertussis toxin for 18 h, then 0.1 µM agonist): undetectable; effect on agonist-induced ERK phosphorylation in mS1PR1-expressing clones ([5]; 300 ng/mL PTX, stimulation with either agonist): reduced the ERK phosphorylation to basal
